Measurements published in US3935236A, “Aminopropanol substituted isochromanones and phthalides” (Gruppo Lepetit, S.p.A., priority 1973, dated 1976).
Like-named read-outs stand apart in the source and are kept apart here.

What was measured:
[1] = LD50 os (acute toxicity); details: in vivo, po
[2] = target: T1, β-receptors (Canis lupus familiaris, UniProt P79148); test: antagonizing isopropylnoradrenaline induced tachycardia in conscious dogs (i.v.); format: in vivo; details: dog, iv, read-out: ED50 in antagonizing isopropylnoradrenaline induced tachycardia
T1 construct: tachycardia in conscious dogs; from tissue; host or cells: heart in the living conscious dog (in vivo, i.v. dosing)
Text: As a standard compound pronethalol was taken into consideration. Pronethalol, i.e. 2-isopropylamino-1-([…])-ethanol, is a known β-blocking agent.

T1 sequence (P79148 whole entry): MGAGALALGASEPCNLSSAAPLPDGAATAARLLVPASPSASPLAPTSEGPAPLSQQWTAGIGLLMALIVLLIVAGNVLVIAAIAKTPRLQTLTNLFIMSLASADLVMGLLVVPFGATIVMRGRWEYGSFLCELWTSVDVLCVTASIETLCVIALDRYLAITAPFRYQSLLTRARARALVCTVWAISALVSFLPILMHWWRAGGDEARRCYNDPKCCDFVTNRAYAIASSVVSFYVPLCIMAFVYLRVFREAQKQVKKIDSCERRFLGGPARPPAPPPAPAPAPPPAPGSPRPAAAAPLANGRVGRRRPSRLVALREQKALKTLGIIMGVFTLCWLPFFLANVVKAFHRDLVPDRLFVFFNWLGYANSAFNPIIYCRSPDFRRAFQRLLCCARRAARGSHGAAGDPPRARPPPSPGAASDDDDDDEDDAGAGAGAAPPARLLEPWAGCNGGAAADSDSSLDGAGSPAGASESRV

| Compound | LD50 [1] [mg/kg] | ED50 [2] [mg/kg] | ED50 ([2]; conscious dogs, i.v.) [mg/kg] |
| --- | --- | --- | --- |
| CC(C)NCC(O)COc1cccc2c1C(=O)OC2.Cl (centres unmarked) [Example 1, 7-(2-Hydroxy-3-isopropylamino-propoxy)-phthalide hydrochloride] | > 500 | 0.01 |  |
| CC(C)NCC(O)COc1ccc2c(c1)C(=O)OC2 (centres unmarked) [Example 2, 6-(2-Hydroxy-3-isopropylamino-propoxy)-phthalide] | > 500 |  | 0.3 |
| CC(C)(C)NCC(O)COc1cccc2c1C(=O)OC2.Cl (centres unmarked) [Example 5, 7-(2-Hydroxy-3-tert-butylamino-propoxy)-phthalide hydrochloride] | > 500 |  |  |
| CC(C)NCC(O)COc1ccc2c(c1)C(=O)OCC2.Cl (centres unmarked) [Example 6, 7-(2-Hydroxy-3-isopropylamino-propoxy)-1-isochromanone hydrochloride] | > 500 | 0.1 |  |
| CC(C)(C)NCC(O)COc1ccc2c(c1)C(=O)OCC2.Cl (centres unmarked) [Example 7, 7-(2-Hydroxy-3-tert-butylamino-propoxy)-1-isochromanone hydrochloride] | > 500 | 0.055 |  |
| CC(C)(C)NCC(O)COc1cccc2c1COC2=O.Cl (centres unmarked) [Example 8, 4-(2-Hydroxy-3-tert-butylaminopropoxy)-phthalide hydrochloride] | > 500 | 0.07 |  |
| CC(C)(C)NCC(O)COc1ccc2c(c1)C(=O)OC2.Cl (centres unmarked) [Example 9, 6-(2-Hydroxy-3-tert-butylamino-propoxy)-phthalide hydrochloride] | > 500 | 0.1 |  |
| CC(C)CNCC(O)COc1cccc2c1C(=O)OC2.Cl (centres unmarked) [Example 10, 7-(2-Hydroxy-3-isobutylamino-propoxy)-phthalide hydrochloride] | > 500 | 0.1 |  |
| CC(C)(C)NCC(O)COc1cccc2c1C(=O)OCC2.Cl (centres unmarked) [Example 12, 8-(2-Hydroxy-3-tert-butylamino-propoxy)-1-isochromanone hydrochloride] | > 500 | 0.003 |  |
| COc1cc(OCC(O)CNC(C)(C)C)c2c(c1)C(=O)OC(C)C2.Cl (centres unmarked) [Example 13, 5-(2-Hydroxy-3-tert-butylamino-propoxy)-7-methoxy-3-methyl-1-isochromanone hydrochloride] | > 500 | 0.005 |  |
| CCC1Cc2c(OCC(O)CNC(C)(C)C)cc(OC)cc2C(=O)O1.Cl (centres unmarked) [Example 14, 3-Ethyl-5-(2-hydroxy-3-tert-butylamino-propoxy)-7-methoxy-1-isochromanone hydrochloride] | > 500 | 0.1 |  |
| COc1cc(OCC(O)CNC(C)(C)C)c2c(c1)C(=O)OC(C)(C)C2.O=C(O)C(=O)O (centres unmarked) [Example 15, 5-(2-Hydroxy-tert-butylamino-propoxy)-7-methoxy-3,3-dimethyl-1-isochromanone oxalate] | > 500 | 0.018 |  |
